EP1216043B1, “RETARD FORM CONTAINING ALPHA-LIPOIC ACID (DERIVATIVES)” (priority 1999, dated 2001)
Like-named read-outs stand apart in the source and are kept apart here.

Legend:
[1] = Diffusion study: diffusion of α-Liponsäure out of a dialysis vessel with/without Chitosan and Essigsäure
Excerpt: Bei der vorliegenden Diffusionsstudie wurde der Einfluss von Chitosan auf das Diffusionsverhalten von α-Liponsäure untersucht.

[2] = cited from earlier work; for Cmax / F (Bioverfügbarkeit) / t1/2 / tmax: peroral, arithmetic mean; for absolute Bioverfügbarkeit: clinical studies, range over the dosage forms of Tabelle 1
[3] = 200 mg (±)-Liponsäure als 200 mg-Tablette
[4] = 200 mg (±)-Liponsäure als 4x50 mg-Tabletten
[5] = 200 mg (±)-Liponsäure als Lösung

SMILES: O=C(O)CCCCC1CCSS1 (racemic) [α-Liponsäure, 1,2-Dithiolan-3-pentansäure]
- share of the Konzentrationsgleichgewicht reached ([1]; in presence of Chitosan, without Essigsäure, ca. 5 hours): 63,8 % ± 4,3
- time until Konzentrationsgleichgewicht der α-Liponsäure innerhalb und außerhalb des Dialysegefäßes was reached ([1]; ohne Chitosan, printed as 'ca.'): ≤ 5 Stunden
- Plasma-Halbwertszeit ([2]; after peroral administration): weniger als zwei Stunden

SMILES: O=C(O)CCCC[C@@H]1CCSS1 [R, R-(+)-α-Liponsäure]
- Cmax [2, 3]: 490 ng/mL
- F (Bioverfügbarkeit) [2, 3]: 24.1%
- t1/2 [2, 3]: 19.8 min
- tmax [2, 3]: 54 min
- Cmax [2, 4]: 600 ng/mL
- F (Bioverfügbarkeit) [2, 4]: 25.9%
- t1/2 [2, 4]: 42.6 min
- tmax [2, 4]: 42 min
- Cmax [2, 5]: 2240 ng/mL
- F (Bioverfügbarkeit) [2, 5]: 38.2%
- t1/2 [2, 5]: 14.4 min
- tmax [2, 5]: 12.6 min
- absolute Bioverfügbarkeit [2]: 24.1 - 38.2%

SMILES: O=C(O)CCCC[C@H]1CCSS1 [S, S-(-)-α-Liponsäure]
- Cmax [2, 3]: 310 ng/mL
- F (Bioverfügbarkeit) [2, 3]: 19.1%
- t1/2 [2, 3]: 19.8 min
- tmax [2, 3]: 54 min
- Cmax [2, 4]: 380 ng/mL
- F (Bioverfügbarkeit) [2, 4]: 20.9%
- t1/2 [2, 4]: 49.2 min
- tmax [2, 4]: 42 min
- Cmax [2, 5]: 1320 ng/mL
- F (Bioverfügbarkeit) [2, 5]: 28.3%
- t1/2 [2, 5]: 9 min
- tmax [2, 5]: 12.6 min
- absolute Bioverfügbarkeit [2]: 19.1 - 28.3%
